How the values were obtained:
PTGES2 = target: T1, PTGES2 (Homo sapiens, UniProt Q9H7Z7); experiment: Biotin-streptavidin pulldown with P29, competition by ferroptocide, LC/LC-MS/MS; assay type: binding; conditions: DMSO/ferroptocide spectral count ratio of P29-labeled enriched proteins
T1 construct: endogenous in cells; host or cells: HCT 116 (and ES-2) cells
Protocol: (§1) ES-2 and HCT 116 (20×10^6 cells/flask) were plated in T175 flasks and treated with DMSO or 20 µM ferroptocide for 1 hr followed by treatment with 20 μM P29 for 1 hr. Cells were lysed via sonication (6500 g, 4 min) in DPBS and the soluble proteome was isolated after […] (45000 g, 45 min). Bradford assay was used to determine protein concentration. The soluble protein lysates in DPBS (pH 7.4) (500 μL, 2 mg/mL) were treated with biotin-azide (100 μM, 50× stock in DMSO), TCEP (1 mM, 50× fresh stock in water), TBTA ligand (100 μM, 17× stock in DMSO:t-butanol=1:4), and copper(II) sulfate (1 mM, 50× stock in water) followed by incubation at r.t. for 1 hr. Samples were centrifuged (6500 g, 4 min, 4° C.) and the supernatant was discarded. The pellets were resuspended in cold methanol by sonication (2×) and then were solubilized in DPBS containing 1.2% SDS via sonication and heating (90° C., 5 min). A final SDS concentration of 0.2% was achieved after addition of 5 mL of DPBS to the SDS-solubilized proteome samples. The solution was incubated overnight at 4° C. with 100 μL of streptavidin-agarose beads (ThermoFisher, washed 3× with DPBS to remove storage buffer). Samples were rotated at 22° C. for 2 hr before being washed by 5 mL 0.2% SDS/DPBS, 3×5 mL DPBS, and 3×5 mL water. The beads were pelleted by centrifugation (1400×g, 3 min) between washes.
(§2) The washed beads were suspended in 500 μL of 6 M urea/DPBS and 10 mM DTT (from 20× stock in water) and heated for 20 min on a 65° C. heat block. Upon addition of iodoacetamide (20 mM from 50× stock in water), samples were allowed to react at 37° C. for 30 min while shaking. Following reduction and alkylation, the beads were pelleted by centrifugation and resuspended in 200 μL of 2 M urea/DPBS, 1 mM CaCl2) (100× stock in water), and sequencing-grade trypsin (2 μg). The bead digestion occurred overnight at 37° C. while shaking. Next day, the beads were pelleted by centrifugation and washed with 2×50 μL water. The washes were combined with the supernatant from the trypsin digestion step, and after addition of formic acid (15 μL) to each sample, they were stored at −20° C. until mass spectrometry analysis.
(§3) LC/LC-MS/MS analysis was performed on an LTQ-Orbitrap Discovery mass spectrometer (ThermoFisher) coupled to an Agilent 1200 series HPLC. Peptide digests were pressure loaded onto a 250 m fused silica desalting column packed with 4 cm of Aqua C18 reverse phase resin (Phenomenex). The peptides were eluted onto a biphasic column (100 m fused silica with a 5, tip, packed with 10 cm C18 and 4 cm Partisphere strong cation exchange resin (SCX, Whatman) using a gradient 5-100% Buffer B in Buffer A (Buffer A: 95% water, 5% acetonitrile, 0.1% formic acid; Buffer B: 20% water, 80% acetonitrile, 0.1% formic acid). The peptides were then eluted from the SCX onto the C18 resin and into the mass spectrometer using 4 salt steps previously described (Nat. Protoc. 2, 1414-1425, (2007)). The flow rate through the column was set to ˜0.25 μL/min and the spray voltage was set to 2.75 kV. One full MS scan (FTMS) (400-1800 MW) was followed by 8 data dependent scans (ITMS) of the n^th most intense ions. The tandem MS data were searched using the SEQUEST algorithm using a concatenated target/decoy variant of the human UniProt database. A static modification of +57.02146 on cysteine was specified to account for alkylation by iodoacetamide. MS2 spectra matches were assembled into protein identifications and filtered using DTASelect2.0 to generate a list of protein hits with a peptide false-discovery rate of 5%. The mass spectrometry proteomics data have been deposited to the ProteomeXchange Consortium via the PRIDE [1] partner repository with the dataset identifier PXD012805.

GSTO1 = target: T2, GSTO1 (Homo sapiens, UniProt P78417); experiment: as above; assay type: binding; conditions: DMSO/ferroptocide spectral count ratio of P29-labeled enriched proteins
T2 construct: endogenous in cells; host or cells: HCT 116 (and ES-2) cells
T2 sequence (P78417 whole entry): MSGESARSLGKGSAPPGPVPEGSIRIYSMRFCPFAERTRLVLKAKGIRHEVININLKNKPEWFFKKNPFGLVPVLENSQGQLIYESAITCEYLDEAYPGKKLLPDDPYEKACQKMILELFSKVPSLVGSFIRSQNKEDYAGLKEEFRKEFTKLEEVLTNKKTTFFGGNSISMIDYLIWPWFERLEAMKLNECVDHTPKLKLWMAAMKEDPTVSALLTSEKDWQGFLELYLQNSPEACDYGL
Protocol: as §1, §2, §3

KEAP1 = target: T3, KEAP1 (Homo sapiens, UniProt Q14145); experiment: as above; assay type: binding; conditions: DMSO/ferroptocide spectral count ratio of P29-labeled enriched proteins
T3 construct: endogenous in cells; host or cells: HCT 116 (and ES-2) cells
T3 sequence (Q14145 whole entry): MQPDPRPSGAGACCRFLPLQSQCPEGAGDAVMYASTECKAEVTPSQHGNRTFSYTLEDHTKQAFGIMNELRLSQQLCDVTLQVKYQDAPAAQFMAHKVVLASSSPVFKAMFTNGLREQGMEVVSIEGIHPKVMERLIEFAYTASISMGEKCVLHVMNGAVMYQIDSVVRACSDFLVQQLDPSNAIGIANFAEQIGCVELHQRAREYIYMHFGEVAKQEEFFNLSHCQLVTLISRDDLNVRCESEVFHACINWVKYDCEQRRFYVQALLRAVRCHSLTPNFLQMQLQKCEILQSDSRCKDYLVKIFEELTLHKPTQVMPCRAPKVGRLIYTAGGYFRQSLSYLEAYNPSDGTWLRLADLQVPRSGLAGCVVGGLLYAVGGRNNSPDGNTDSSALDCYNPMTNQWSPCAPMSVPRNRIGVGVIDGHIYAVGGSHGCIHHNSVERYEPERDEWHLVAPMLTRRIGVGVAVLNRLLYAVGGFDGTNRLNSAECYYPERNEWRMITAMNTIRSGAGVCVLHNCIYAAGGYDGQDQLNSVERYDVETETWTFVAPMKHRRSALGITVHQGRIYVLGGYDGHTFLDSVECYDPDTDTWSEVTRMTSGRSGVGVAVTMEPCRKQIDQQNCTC
Protocol: as §1, §2, §3

TXNRD1 = target: T4, TXNRD1 (Homo sapiens, UniProt Q16881); experiment: as above; assay type: binding; conditions: DMSO/ferroptocide spectral count ratio of P29-labeled enriched proteins
T4 construct: HCT 116 cells were pre-treated with ferroptocide or DMSO, followed by treatment with P29; endogenous in cells; host or cells: HCT 116 (and ES-2) cells
T4 sequence (Q16881 151-649 limits assumed): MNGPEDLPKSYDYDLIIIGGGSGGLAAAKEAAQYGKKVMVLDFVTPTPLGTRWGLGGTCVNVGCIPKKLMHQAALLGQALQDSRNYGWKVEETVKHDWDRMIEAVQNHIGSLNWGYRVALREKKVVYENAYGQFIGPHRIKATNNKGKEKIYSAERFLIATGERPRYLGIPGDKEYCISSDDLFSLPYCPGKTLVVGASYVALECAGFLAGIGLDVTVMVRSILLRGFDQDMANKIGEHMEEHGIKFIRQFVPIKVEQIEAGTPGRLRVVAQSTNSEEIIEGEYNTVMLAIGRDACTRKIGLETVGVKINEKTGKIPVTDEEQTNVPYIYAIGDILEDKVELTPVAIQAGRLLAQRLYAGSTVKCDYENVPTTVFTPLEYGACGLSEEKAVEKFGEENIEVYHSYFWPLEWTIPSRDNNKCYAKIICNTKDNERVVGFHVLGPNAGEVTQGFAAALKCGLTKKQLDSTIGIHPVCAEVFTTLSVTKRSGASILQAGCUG
Protocol: as §1, §2, §3

ES-2 cells = experiment: Mitochondrial ROS production (MitoSOX Red); assay type: cell-based; conditions: 1 hr
Protocol: ES-2 cells (1×10^5 cells/mL) were plated in 12-well plates and allowed to attach overnight. Cells were treated for 1 hr with DMSO, 10 and 25 μM ferroptocide, 5 μM IB-DNQ, and 10 μM rotenone. Cells were washed with HBSS and incubated in the dark for 10 min with 5 μM MitoSOX Red probe. Cells were then washed 2× with HBSS and harvested at 1000×g, 3 min. After resuspension in 500 μl HBSS buffer, samples were analyzed with flow cytometry to record ten thousand events per sample in the PE channel in BD LSR II Flow Cytometer (BD Bioscience). FCS express V6 De Novo software was used to generate the histogram.

[1] = Pharmacokinetic assessment; assay type: in vivo, C57BL/6 mice
Protocol: The protocol was approved by the IACUC at the University of Illinois at Urbana-Champaign (Protocol Number: 14173). In these studies, 10- to 12-week-old female C57BL/6 mice (purchased from Charles River) were used. Ferroptocide was formulated in 100% PEG400. Mice were treated with ferroptocide (40 mg/kg) via i.p. with three mice per time point (15, 30, 45, 60, 120, 240, 480, and 1440 min). At specific time points, mice were sacrificed, and blood was collected, centrifuged; the serum was frozen at −80° C. until analysis. The proteins in a 50 μL aliquot of serum were precipitated by the addition of 50 μL acetonitrile and the sample was centrifuged to remove the proteins. Serum concentrations of ferroptocide were determined by reverse phase HPLC (Shimadzu Corporation, Japan). PK parameters were determined using GraphPad Prism Version 5.00 for Windows.

[2] = female, mouse, ip, 40 mg/kg i.p., C57BL/6 mice, serum

T1 sequence (Q9H7Z7 whole entry): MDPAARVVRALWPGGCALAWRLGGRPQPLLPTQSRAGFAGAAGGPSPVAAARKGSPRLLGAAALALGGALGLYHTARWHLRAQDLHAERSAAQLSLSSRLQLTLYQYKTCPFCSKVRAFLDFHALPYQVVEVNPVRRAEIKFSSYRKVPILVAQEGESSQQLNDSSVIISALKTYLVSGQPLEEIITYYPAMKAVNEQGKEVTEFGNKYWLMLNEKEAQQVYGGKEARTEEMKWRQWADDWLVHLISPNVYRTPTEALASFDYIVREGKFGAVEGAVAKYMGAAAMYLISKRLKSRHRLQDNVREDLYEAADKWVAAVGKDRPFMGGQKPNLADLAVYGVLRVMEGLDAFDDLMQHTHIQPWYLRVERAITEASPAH

With `C[C@@H]1CC[C@@]23C[C@H](O)C(=O)[C@@]2(O)[C@]1(C)[C@H](OC(=O)CCl)C[C@@H](C1=CCn2c(=O)n(-c4ccccc4)c(=O)n2C1)[C@@H]3C` [Compound P18, ferroptocide] the “Fold Change” value (PTGES2) was 18, the “Fold Change” value (GSTO1) was 3.6 and the “Fold Change” value (KEAP1) was 3.1. The “Fold Change” value (TXNRD1) was 4.9, the “mitochondrial ROS” value (ES-2 cells) was “increase of mitochondrial ROS” and the AUC [1, 2] was 7040 ng·h/mL. The half-life [1, 2] was 9.96 min and the “pharmacokinetics (in words)” value ([1]; mice) was “poor pharmacokinetics”.
